Legend:
class I HDACs = assay: HDAC selectivity panel (Reaction Biology Corporation), class I; format: biochemical; details: heat map Fig. 2A
Method: Recombinant HDAC6, HDAC7, HDAC1 were obtained from SignalChem Pharmaceutical Inc. (Richmond, BC, Canada), and recombinant human HDAC4 was prepared at Takeda pharmaceutical company. One μL of T-518 diluted with DMSO was added to 75 μL of assay buffer (24 mM Tris–HCl (pH 7.5), 135 mM NaCl, 0.35 mM KCl, 1 mM MgCl2, 0.01% Tween 20, 0.6 mM GSH) in 384 well plates. Two μL of diluted compounds were added to 384 well plates and 2 μL of recombinant HDAC enzymes was added and then centrifuged at 1000 rpm for 10 s. The final concentrations of each HDAC enzyme were as follows, human HDAC1, 170 pM; human HDAC6, […]; human HDAC4, 68 pM; human HDAC7, 13 pM. After incubation for 60 min at room temperature, 4 μL of HDAC-Glo reagent [HDAC-Glo I/II (Promega) for HDAC6 and HDAC1, HDAC-Glo class IIa (Promega) for HDAC4 and HDAC7] was added to start the reaction. After incubation for 20 min at room temperature, the luminescence was measured by Envision plate reader (PerkinElmer, Waltham, MA, USA). For experiments under the condition of 0 min preincubation, 4 μL of HDAC-Glo reagent was added at first to the 384 well plates including diluted compounds. […] After centrifugation at 1000 rpm for 10 s. and then incubation for 20 min at room temperature, the luminescence was measured by Envision. […] The inhibitory activity of T-518 was expressed as the value of IC50. […]

class IIa HDACs = assay: HDAC selectivity panel (Reaction Biology Corporation), class IIa; format: biochemical; details: heat map Fig. 2A
Method: Recombinant HDAC6, HDAC7, HDAC1 were obtained from SignalChem Pharmaceutical Inc. (Richmond, BC, Canada), and recombinant human HDAC4 was prepared at Takeda pharmaceutical company. One μL of T-518 diluted with DMSO was added to 75 μL of assay buffer (24 mM Tris–HCl (pH 7.5), 135 mM NaCl, 0.35 mM KCl, 1 mM MgCl2, 0.01% Tween 20, 0.6 mM GSH) in 384 well plates. Two μL of diluted compounds were added to 384 well plates and 2 μL of recombinant HDAC enzymes was added and then centrifuged at 1000 rpm for 10 s. The final concentrations of each HDAC enzyme were as follows, human HDAC1, 170 pM; human HDAC6, […]; human HDAC4, 68 pM; human HDAC7, 13 pM. After incubation for 60 min at room temperature, 4 μL of HDAC-Glo reagent [HDAC-Glo I/II (Promega) for HDAC6 and HDAC1, HDAC-Glo class IIa (Promega) for HDAC4 and HDAC7] was added to start the reaction. After incubation for 20 min at room temperature, the luminescence was measured by Envision plate reader (PerkinElmer, Waltham, MA, USA). For experiments under the condition of 0 min preincubation, 4 μL of HDAC-Glo reagent was added at first to the 384 well plates including diluted compounds. After centrifugation at 1000 rpm for 10 s, 2 μL of HDAC enzyme solution was added. After centrifugation at 1000 rpm for 10 s. and then incubation for 20 min at room temperature, the luminescence was measured by Envision. For determination of inhibitory activity of T-518, the vehicle signal was set as 0% and the signal in the absence of HDAC enzyme was set as 100% inhibition. The inhibitory activity of T-518 was expressed as the value of IC50. The IC50 value and 95% confidence intervals were calculated by XLfit (IDBS, Surrey, UK). The HDAC selectivity panel was conducted by Reaction Biology Corporation (Malvern, PA, USA).

[1] = system: Histone H3 acetylation in mouse primary neural cultures; assay: Histone H3 acetylation in mouse primary neural culture (Western blotting); format: cell-based; details: DIV6 mouse primary neural culture, 3 and 30 μM, 24 h
Method: (§1) T-518, ACY-738, Ricolinostat, and Tubastatin A were synthesized in Takeda. For in vitro cellular experiments, the compounds were solubilized with DMSO and diluted in the culture medium at the indicated concentrations. For in vivo experiments, the compound was reconstituted in 0.5% methylcellulose and administered orally at the indicated doses. After administration, mouse hippocampus was isolated and homogenized in RIPA extraction buffer (50 mM Tris–HCl, 150 mM NaCl, 1% NP-40, 0.5% sodium deoxycholate, and 0.1% SDS, pH 8.0) supplemented with protease and phosphatase inhibitor cocktail (Thermo Fischer, Waltham, MA, USA). The homogenate was centrifuged at 10,000g for 15 min and the supernatant was taken as the RIPA-soluble fraction.
(§2) Primary cortical neurons were prepared from E14 C57BL/6J mouse embryos (CLIEA Japan, Inc., Tokyo, Japan) using papain-containing Neuron Dissociation Solutions (Fujifilm Wako, Tokyo, Japan). Isolated cells were suspended in Neurobasal Medium containing B-27 (Thermo Fisher) and seeded on poly-D-lysine-coated plates (Corning, NY, USA) under 5% CO2 at 37 °C for 6 days in vitro (DIV) prior to evaluation of HDAC6 inhibitors. Cells were treated with HDAC6 inhibitors at the indicated concentrations for 24 h and lysed in RIPA extraction buffer (50 mM Tris–HCl, 150 mM NaCl, 1% NP-40, 0.5% sodium deoxycholate, and 0.1% SDS, pH 8.0) supplemented with protease and phosphatase inhibitor cocktail (Thermo Fisher).
Cell lysate or in vivo protein samples were separated by 10% SDS-PAGE, then electrophoretically transferred to 0.45 μm poly-vinylidene difluoride membranes (Millipore). Membranes were blocked for 1 h in Blocking Reagent (TOYOBO, Osaka, Japan), probed with primary antibodies followed by labeling with HRP-coupled secondary antibodies (Amersham, Piscataway, NJ), and then visualized using chemiluminescence reagent (ECL; Amersham). Images were captured using ImageQuant LAS 4000 (GE healthcare Bio-Sciences, Marlborough, MA, USA). Quantitative densitometric analyses were conducted using ImageQuant TL (GE healthcare Bio-Sciences). The protocol was slightly modified for detection of HDAC6 in cortex. Briefly, cerebral cortex was homogenized in RIPA buffer supplemented with 1 μM microstatin, 1 μM MG115, 40 μM Leupeptin, 100 μM ABSF, and 2 mM sodium orthovanadate, separated by 7.5–15% gradient SDS-PAGE and electrophoretically transferred to 0.45 μm poly-vinylidene difluoride membranes (Millipore). Membranes were blocked for 1 h with ECL Prime Blocking Reagent (Amersham, Piscataway, NJ) prior to immunoblotting, visualization, and densitometry as described above.

[2] = system: tubulin acetylation in mouse primary neural cultures; assay: Tubulin acetylation in mouse primary neural culture (ELISA); format: cell-based; details: DIV6 mouse primary neural culture, 0.1–10 μM, 24 h, ELISA
Method: as §1, §2
Acetylated α-tubulin and total tubulin levels were measured by sandwich ELISA. Ninety six-well plates (Microlite2+, Thermo) were coated with α-tubulin capture antibody (1:100) by overnight incubation at 4 °C, washed 4 times with PBS'T, treated with blocking buffer (1% bovine serum albumin in PBS'T) at 37 °C for 2 h, and washed another 4 times with PBS’T. Cell or tissues lysate was added to the wells and plates were incubated at 37 °C for 2 h. Plates were then washed 4 times with PBST, incubated with a detection antibody for acetylated tubulin or total α-tubulin diluted in blocking buffer at 37℃ for 1 h, rewashed 4 more times with PBST, incubated with a mouse secondary antibody conjugated to horseradish peroxidase (HRP) for 30 min, wash 4 times again with PBST, and then incubated with chemiluminescent substrate (SuperSignal).

| SMILES | inhibition of class I HDACs in HDAC panel (class I HDACs) | inhibition of class IIa HDACs in HDAC panel (class IIa HDACs) | effect on Histone H3 acetylation [1] | effect on tubulin acetylation [2] |
| --- | --- | --- | --- | --- |
| O=C(NO)c1cnc(NC2(c3ccccc3)CC2)nc1 [ACY-738] | slightly inhibit | slightly inhibit | increase the acetylation of histone H3 | significantly and concentration-dependently elevates tubulin acetylation |
| O=C(CCCCCCNC(=O)c1cnc(N(c2ccccc2)c2ccccc2)nc1)NO [Ricolinostat] | slightly inhibit | slightly inhibit | increase the acetylation of histone H3 | significantly and concentration-dependently elevates tubulin acetylation |
| CN1CCc2c(c3ccccc3n2Cc2ccc(C(=O)NO)cc2)C1 [Tubastatin A] | – | inhibits | neither T-518 nor Tubastatin A at 3 and 30 μM demonstrates this activity | significantly and concentration-dependently elevates tubulin acetylation |
